The data set can be described thus: Prodrug-drug conversion in full blood. Type of data set: in vitro ADME. The following applies: fresh heparinised rat blood, 37° C., after 120 min. Here is the method:
495 μL fresh heparinised rat blood are spiked with 5 μL of a 1 mg/mL DMSO solution of the analyte (prodrug) at 37° C. After t=0, 5, 15, 30, 60 and 120 min, a blood sample is taken and precipitated. Therefore to 50 μL blood sample or spiked blood sample 150 μL acetonitrile containing an internal standard are added. Samples are centrifuged and 20 μl of the supernatant are injected into the HPLC system for determination of compound concentration (prodrug and parent drug) by LC-MS/MS analysis.
For calibration, a standard curve is prepared with a compound concentration range from 10 to 10000 ng/mL in fresh heparine rat blood. Therefore the blood is spiked (2 μL DMSO solution in 198 μL fresh rat blood) and precipitated like unknown samples.

The source of these data is patent publication US8802858B2, “Furazanobenzimidazoles as prodrugs to treat neoplastic or autoimmune diseases” (Basilea Pharmaceutica AG, priority 2009, dated 2014).

For the compound `NCC(=O)Nc1ccc(C(=O)Cn2c(-c3nonc3N)nc3ccccc32)cc1` [Example 12, 2-Amino-N-(4-{2-[2-(4-amino-furazan-3-yl)-benzoimidazol-1-yl]-acetyl}-phenyl)-acetamide], the “conversion of prodrug into its parent drug” value was “completely converted”.
